Here are results for five compounds from patent US8455616B2, “Nuclear translocation peptide” (National Center for Global Health and Medicine, priority 2007, dated 2013).

Data set [1] relates to HeLa cells. Nature of the data set: Cytotoxicity test (damage to intracellular DNA, anti-γ-H2AX staining). The class given is cell-based, human. Particulars: HeLa cells incubated 2 days with peptide, fragmented double-stranded DNA stained with anti-γ-H2AX antibody, FIG. 8. The protocol:
Testing of the peptide of the present invention for damage to intracellular DNA was performed in the following manner. • (Day 1) HeLa cells were seeded onto a dish at a concentration of 5×10^4 cells/dish, and cultured in 10% FCS/DMEM medium (2 mL). • (Day 2) Recombinant Vpr (protein derived from Vpr), C45D18 (Peptide 9), and LR20 (Peptide 1) were added, and the cells were incubated for 2 days. • (Day 4) The following sequence of treatments was performed on the cells: The dish was washed with PBS→the cells were fixed with 4% paraformaldehyde→after incubation for 20 min on ice, the cells were washed with PBS→200 μL of 1% Triton X-100/2M HCl solution was added, and the cells were incubated at room temperature for 30 min→blocking with 200 μL of 1% BSA was performed at room temperature for 1 h→anti-γ-H2AX antibody solution was added, and the fragmented double-stranded DNA was stained (37° C. for 30 min)→cy3-anti-mouse IgG solution was added, and the cells were incubated at room temperature for 30 min→the nuclei were stained with DAPI/PBST (3 min)→the cells were mounted on glass slides.
In FIG. 8 the stained parts indicate fragmented DNA.

The conditions of data set [2]: cited from earlier work.
The test system of data set [3] is HeLa cells. As to the kind of experiment: Cellular and nuclear translocation capability of magnetic particles in HeLa cells. Particulars: peptide-CMDM conjugates, iron 0.7 mg/mL, thymidine-arrested HeLa cells, 18 h exposure, T2 relaxation time by NMR, FIG. 1. The class given is cell-based, human.
Description: With respect to the amount of cellular and nuclear translocation of the aforementioned peptide-magnetic nanoparticle conjugate, the translocation capability of the peptide of the present invention can be compared with that of a previous PTD by adding the conjugate to cultured cells, separating and recovering the cytoplasm and nuclei after letting the culture stand for a set period of time, measuring the T2 relaxation time by NMR, and measuring the amount of magnetic nanoparticles taken up by the cells.
After 18 h of exposure, the cells were washed with PBS and recovered, and centrifugal separation (2000 rpm for 5 min) was performed to precipitate the cells into pellets. After the cells were resuspended by adding 700 mL of PBS, they were lysed using a Dounce homogenizer and centrifuged (2000 rpm for 5 min) into pellets. […] Then the T2 relaxation time of each resulting fraction was measured by NMR. Concurrently, the protein concentration of each fraction was measured by BSA protein assay.
Because a fixed relation is established between T2 relaxation time and magnetic substance concentration, the magnetic substance concentration can be calculated by assuming that the T2 relaxation of the sample is the same before and after the test. The calculated concentration was corrected further using the protein concentration.

Ends that are not written are not given here.

For the compound “RIFIHFRIGC [Peptide 4, R I F I H F R I G C]”, the “DNA damage (cytotoxicity)” value in the data set on HeLa cells [1] is recorded as “no damage to DNA was seen”.
Take `CC[C@H](C)[C@H](NC(=O)[C@H](CCCNC(=N)N)NC(=O)[C@H](CO)NC(=O)[C@H](Cc1c[nH]cn1)NC(=O)[C@H](CCCNC(=N)N)NC(=O)[C@H](CS)NC(=O)CNC(=O)[C@@H](NC(=O)[C@H](CCCNC(=N)N)NC(=O)[C@H](Cc1ccccc1)NC(=O)[C@H](Cc1c[nH]cn1)NC(=O)[C@@H](NC(=O)[C@H](Cc1ccccc1)NC(=O)[C@H](CC(C)C)NC(=O)[C@H](CC(C)C)NC(=O)[C@H](CCC(N)=O)NC(=O)[C@H](CCC(N)=O)NC(=O)[C@H](CC(C)C)NC(=O)[C@@H](NC(=O)[C@@H](N)CCCNC(=N)N)[C@@H](C)CC)[C@@H](C)CC)[C@@H](C)CC)C(=O)O` [Peptide 1, RILQQLLFIHFRIGCRHSRI]: the “DNA damage (cytotoxicity)” value in the data set with HeLa cells [1] is given as “extent of DNA damage is decreased”.
In the case of “DTWAGVEAIIRILQQLLFIHFRIGCRH [Peptide 9]”, the “translocation capability relative to a protein originating in Vpr” value in data set [2] (Taguchi et al., Biochem. Biophys. Res. Comm., 320, 18 (2004)) was “stronger translocation capability than a protein originating in Vpr”. Moreover, in data set [2] (conjugates of C45D18 and enzymatic proteins, into a cell and into a nucleus, Taguchi et al. (2004)), the “translocation capability of conjugates with enzymatic proteins relative to the Tat peptide” value was “greater than that of the Tat peptide”.
Regarding “R I L Q Q L L F I H F R I G C [Peptide 3]”, the “cellular and nuclear translocation capability” value in the data set with HeLa cells [3] is “best cellular and nuclear translocation capability”.
Turning to “Peptide 12: PTD peptide discovered during research to enhance the function of the Tat peptide (Mukai et al.), synthesized with additional GGC (THRLPRRRRRR; YM-3 peptide)”, the “cellular translocation capability relative to the Tat peptide” value in data set [2] (Mukai et al., Biol. Pharm. Bull. 29(8), 1570 (2006)) is given as “approximately three times higher than that of the Tat peptide”.
